Patent US7514448B2, “Azaindoles useful as inhibitors of rock and other protein kinases” (Vertex Pharmaceuticals Incorporated, priority 2004, dated 2009)

Experiments:
Assay type in all cases: biochemical
PKA = PKA (Homo sapiens, UniProt P17612); experiment: PKA inhibition assay, coupled enzyme; details: average Ki if more than one determined
Summary of the method: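 Coupled PK/LDH assay following NADH depletion: 18 nM PKA, 50 μM ATP, 80 μM Kemptide in 100 mM HEPES pH 7.5, 10 mM MgCl2, 25 mM NaCl, 1 mM DTT, 3% DMSO, at 30 °C. Compound preincubated 10 min before ATP start; initial rates over 15 min, IC50 and Ki by non-linear regression.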

Itk = molecular target: T1, Itk (Homo sapiens, UniProt Q08881); experiment: Itk inhibition assay, coupled enzyme; details: average Ki if more than one determined
T1 sequence (Q08881 1-620): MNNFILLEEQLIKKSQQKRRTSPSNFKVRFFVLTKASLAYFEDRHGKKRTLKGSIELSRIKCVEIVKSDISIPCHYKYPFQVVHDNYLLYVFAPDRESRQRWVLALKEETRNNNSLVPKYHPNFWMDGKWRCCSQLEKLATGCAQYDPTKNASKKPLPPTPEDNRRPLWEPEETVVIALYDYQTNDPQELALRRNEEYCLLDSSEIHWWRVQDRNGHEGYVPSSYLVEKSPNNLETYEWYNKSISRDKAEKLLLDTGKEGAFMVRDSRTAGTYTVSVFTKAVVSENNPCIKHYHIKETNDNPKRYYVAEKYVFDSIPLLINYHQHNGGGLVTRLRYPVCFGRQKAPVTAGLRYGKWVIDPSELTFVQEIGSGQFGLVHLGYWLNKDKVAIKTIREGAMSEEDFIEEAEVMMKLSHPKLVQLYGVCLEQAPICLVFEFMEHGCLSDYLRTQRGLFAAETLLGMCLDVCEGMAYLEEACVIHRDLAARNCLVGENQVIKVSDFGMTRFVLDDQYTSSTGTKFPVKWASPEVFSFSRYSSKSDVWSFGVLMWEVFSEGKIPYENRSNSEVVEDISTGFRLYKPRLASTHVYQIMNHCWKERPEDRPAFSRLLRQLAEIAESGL
Protocol: Compounds were screened for their ability to inhibit Itk using a standard coupled enzyme assay (Fox et al., Protein Sci., (1998) 7, 2249). Assays were carried out in a mixture of 20 mM MOPS (pH 7.0), 10 mM MgCl2, 0.1% BSA, 1 mM DTT, 2.5 mM phosphoenolpyruvate, 300 μM NADH, 30 μg/ml pyruvate kinase and 10 μg/ml lactate dehydrogenase. Final substrate concentrations in the assay were 100 μM ATP (Sigma Chemicals) and 3 μM peptide (Biotinylated SAM68 D332-443). Assays were carried out at 25° C. and in the presence of 100 nM Itk.
An assay stock buffer solution was prepared containing all of the reagents listed above, with the exception of ATP and the test compound of interest. 60 μl of the stock solution was placed in a 96 well plate followed by addition of 2 μl of DMSO stock containing serial dilutions of the test compound (typically starting from a final concentration of 15 μM). The plate was preincubated for 10 minutes at 25° C. and the reaction initiated by addition of 5 μl of ATP. Initial reaction rates were determined with a Molecular Devices SpectraMax Plus plate reader over a 10 minute time course. IC50 and Ki data were calculated from non-linear regression analysis using the Prism software package (GraphPad Prism version 3.0cx for Macintosh, GraphPad Software, San Diego Calif., USA).

ROCK I (AA 6-553) = ROCK I (AA 6-553) (Homo sapiens, UniProt Q13464); experiment: ROCK inhibition assay, coupled enzyme system ("Enzyme"); details: enzyme-linked assay; average Ki if more than one determined
Protocol: Reactions were carried out in a solution containing 100 mM HEPES (pH 7.5), 10 mM MgCl2, 25 mM NaCl, 2 mM DTT and 1.5% DMSO.
(§1) If more than one value of Ki has been determined, the average Ki is indicated. If no value is indicated, then the Ki was not determined.

ROCK = ROCK (Homo sapiens, UniProt Q13464); experiment: ROCK radioactive assay ("33P"); details: radioactive assay; average Ki if more than one determined; read-out: ROCK 33P Ki
Source text: as §1

Sequence of ROCK (Q13464 whole entry): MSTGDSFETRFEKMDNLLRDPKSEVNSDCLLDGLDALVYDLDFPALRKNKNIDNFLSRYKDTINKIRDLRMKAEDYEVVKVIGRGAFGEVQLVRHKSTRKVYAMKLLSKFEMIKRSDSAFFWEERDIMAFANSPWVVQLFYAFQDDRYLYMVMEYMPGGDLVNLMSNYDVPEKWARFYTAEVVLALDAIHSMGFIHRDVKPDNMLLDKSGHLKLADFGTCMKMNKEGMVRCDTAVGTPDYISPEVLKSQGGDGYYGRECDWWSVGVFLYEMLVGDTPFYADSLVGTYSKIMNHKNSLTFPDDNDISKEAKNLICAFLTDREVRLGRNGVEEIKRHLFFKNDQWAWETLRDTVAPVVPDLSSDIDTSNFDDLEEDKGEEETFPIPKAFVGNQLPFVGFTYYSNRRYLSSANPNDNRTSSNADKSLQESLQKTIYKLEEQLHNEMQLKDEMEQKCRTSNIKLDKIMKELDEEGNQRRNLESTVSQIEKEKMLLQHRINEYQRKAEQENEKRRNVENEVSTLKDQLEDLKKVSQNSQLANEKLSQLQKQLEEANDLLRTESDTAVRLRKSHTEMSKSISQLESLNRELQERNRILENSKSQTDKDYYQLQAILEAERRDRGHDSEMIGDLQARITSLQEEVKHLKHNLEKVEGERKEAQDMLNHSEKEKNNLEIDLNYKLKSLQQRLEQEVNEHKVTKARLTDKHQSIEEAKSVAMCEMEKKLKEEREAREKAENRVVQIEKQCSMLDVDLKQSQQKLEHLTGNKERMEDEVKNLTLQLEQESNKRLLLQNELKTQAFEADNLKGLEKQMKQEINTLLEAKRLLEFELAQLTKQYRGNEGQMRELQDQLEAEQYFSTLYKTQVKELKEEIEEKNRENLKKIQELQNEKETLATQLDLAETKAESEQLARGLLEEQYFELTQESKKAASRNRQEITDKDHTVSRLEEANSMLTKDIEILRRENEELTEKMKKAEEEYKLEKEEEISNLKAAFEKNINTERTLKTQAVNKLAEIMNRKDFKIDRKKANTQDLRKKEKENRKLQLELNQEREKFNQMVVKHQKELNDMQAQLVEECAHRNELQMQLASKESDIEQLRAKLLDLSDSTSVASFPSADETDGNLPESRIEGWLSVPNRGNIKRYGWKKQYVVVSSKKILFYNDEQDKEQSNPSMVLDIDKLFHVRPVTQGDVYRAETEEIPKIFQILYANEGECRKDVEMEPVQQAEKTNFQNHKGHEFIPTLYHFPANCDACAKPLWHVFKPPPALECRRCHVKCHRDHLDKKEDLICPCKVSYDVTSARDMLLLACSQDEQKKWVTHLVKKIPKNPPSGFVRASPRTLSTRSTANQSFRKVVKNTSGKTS
Sequence of ROCK I (AA 6-553) (Q13464 6-553, species assumed): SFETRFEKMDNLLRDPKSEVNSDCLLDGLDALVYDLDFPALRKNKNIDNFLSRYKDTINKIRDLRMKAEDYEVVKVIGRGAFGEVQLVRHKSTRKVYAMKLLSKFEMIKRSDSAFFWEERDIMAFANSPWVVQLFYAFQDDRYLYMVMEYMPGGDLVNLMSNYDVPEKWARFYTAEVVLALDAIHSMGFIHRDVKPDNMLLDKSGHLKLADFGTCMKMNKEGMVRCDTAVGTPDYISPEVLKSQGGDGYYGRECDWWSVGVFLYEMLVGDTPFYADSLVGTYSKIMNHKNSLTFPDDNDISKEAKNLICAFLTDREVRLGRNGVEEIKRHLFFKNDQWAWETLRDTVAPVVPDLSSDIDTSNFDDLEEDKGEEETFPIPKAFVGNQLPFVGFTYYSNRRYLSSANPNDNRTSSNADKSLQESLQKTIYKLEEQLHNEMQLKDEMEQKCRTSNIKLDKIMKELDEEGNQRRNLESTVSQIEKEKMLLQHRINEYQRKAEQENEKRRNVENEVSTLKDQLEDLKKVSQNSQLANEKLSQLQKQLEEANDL

Ki (PKA) [µM] | Ki (Itk) [µM] | Ki (ROCK I (AA 6-553)) [µM] | Ki (ROCK) [µM] | SMILES
< 0.5 | 0.5 to 5 |  |  | O=C(Cc1ccccc1)Nc1nc(-c2c[nH]c3ncccc23)cs1 [I-1]
< 0.5 | 0.5 to 5 | < 0.5 |  | O=C(Cc1ccccc1)N(c1nc(-c2c[nH]c3ncccc23)cs1)C1CC1 [I-20]
< 0.5 | 0.5 to 5 | < 0.5 |  | O=C(Cc1ccc(F)cc1)N(c1nc(-c2c[nH]c3ncccc23)cs1)C1CC1 [II-53]
< 0.5 | 0.5 to 5 | < 0.5 |  | O=C(CCc1ccccc1)N(c1nc(-c2c[nH]c3ncccc23)cs1)C1CC1 [II-54]
< 0.5 | 0.5 to 5 | < 0.5 | < 0.5 | O=C(Cc1ccccc1)Nc1nc(-c2c[nH]c3ncc(Br)cc23)cs1 [II-79]
0.5 to 5 | 0.5 to 5 |  | < 0.5 | CC(C)C(=O)Nc1nc(-c2c[nH]c3ncccc23)cs1 [II-162]
0.5 to 5 | 0.5 to 5 |  | < 0.5 | O=C(NCC1CCNCC1)c1nc(-c2c[nH]c3ncc(-c4ccccc4)cc23)cs1 [II-245]
0.5 to 5 | 0.5 to 5 |  | < 0.5 | O=C(Nc1nc(-c2c[nH]c3ncc(Br)cc23)cs1)C1Cc2ccccc2C1 [II-246]
0.5 to 5 | 0.5 to 5 |  | < 0.5 | O=C(Nc1nc(-c2c[nH]c3ncc(Br)cc23)cs1)C1CC1 [II-247]
< 0.5 | 0.5 to 5 |  | 0.5 to 5 | O=C(CC1CCCC1)Nc1nc(-c2c[nH]c3ncc(Br)cc23)cs1 [II-248]
0.5 to 5 | 0.5 to 5 |  | < 0.5 | O=C(CCc1ccccc1)Nc1nc(-c2c[nH]c3ncc(Br)cc23)cs1 [II-249]
< 0.5 | 0.5 to 5 |  |  | O=C(Cc1ccc(Br)cc1)Nc1nc(-c2c[nH]c3ncc(Br)cc23)cs1 [II-250]
< 0.5 | 0.5 to 5 |  | 0.5 to 5 | O=C(CCC1CCCCC1)Nc1nc(-c2c[nH]c3ncc(Br)cc23)cs1 [II-251]
0.5 to 5 | 0.5 to 5 |  | < 0.5 | O=C(Nc1nc(-c2c[nH]c3ncc(Br)cc23)cs1)C1CCOC1 (centres unmarked) [II-252]
< 0.5 | 0.5 to 5 |  | 0.5 to 5 | O=C(CCS(=O)(=O)c1ccccc1)Nc1nc(-c2c[nH]c3ncc(Br)cc23)cs1 [II-253]
0.5 to 5 | 0.5 to 5 |  | < 0.5 | O=C(CCOc1ccccc1)Nc1nc(-c2c[nH]c3ncc(Br)cc23)cs1 [II-254]
0.5 to 5 | 0.5 to 5 |  |  | O=C(CCNC(=O)OCc1ccccc1)Nc1nc(-c2c[nH]c3ncc(Br)cc23)cs1 [II-255]
 | 0.5 to 5 |  |  | CCN(C(=O)CC1CCCC1)c1nc(-c2c[nH]c3ncc(Br)cc23)cs1 [II-256]
